Assay results taken from patent US10028507B2, “Sixteen-membered macrolide compound and applications thereof” (Zhejiang Hisun Pharmaceutical Co., Ltd., priority 2014, dated 2018).
In brackets after ≈: the same amount, converted by molar mass. Where two headings read alike, the source gives them in different places.

Experiments:
citrus spider mite = assay: Prevention and control effect on citrus spider mite in field; assay type: in vivo, Panonychus citri McGregor; set-up: Amount of mites: unit not given here
Procedure: Citrus spider mite (i.e., Panonychus citri McGregor) is one of the primary insect pests for citrus. It has properties, such as small body, fast propagation and multiple generations, which will cause severe damage to citrus. Tenvermectin was prepared as 2% water dispersible granules for the test of prevention and control of citrus spider mite, so as to determine its effect in field.
Test reagents: 2% tenvermectin water dispersible granules (tenvermectin, ethanol and alkylphenol polyoxyethylene ether-formaldehyde condensate in a mass ratio of […]), and 2% avermectin emulsifiable concentrate
Experiment time: in early May, at the young fruit stage of citrus.
Experiment design: the reagents were diluted 2000-, 4000- and 8000-fold, to concentrations of 10 mg/L, 5 mg/L and 2.5 mg/L, respectively. For each concentration, there were 3 repeats. 10 citrus trees were comprised in one small area that was randomly arranged. Water was used as the control, in which 10 citrus trees were tested. 50 kg of reagent was sprayed for each concentration. The reagent was administrated on a sunny day with no rain in following 24 h.
Data analysis: in each small area, 5 trees were examined. For each tree, 2 branches, each located in the east, the south, the west, the north and the center of the tree, were investigated. For each branch, the amount of live mites was counted for total 5 leaves. The amount of live mites was counted before administration and on day 3, 5, 7 and 14 after administration respectively, to calculate the reduction rate of the mite population. The prevention and control effect in field was determined based on the result.

[1] = tested on: Bursaphelenchus xylophilus; assay: whole plant or invertebrate
Procedure: Bursaphelenchus xylophilus is the pathogen of pine wilt disease, which results in the death of a great number of pines in the south of China. The laboratory activities of sixteen-membered macrolide compounds, including tenvermectin, avermectin, ivermectin, milbemycin, and emamectin benzoate etc, were tested using Bursaphelenchus xylophilus as the test pest, in order to compare the difference of activities among these reagents on Bursaphelenchus xylophilus.
Test reagents: 5 reagents, including 0.5% avermectin emulsifiable concentrate, 0.5% tenvermectin emulsifiable concentrate, 0.5% ivermectin emulsifiable concentrate, 2% milbemycin emulsifiable concentrate, and 2.5% emamectin benzoate microemulsion.
Experiment method: Dipping method was employed. For each reagent, 5 concentrations were tested, including 2, 5, 10, 20, and 50 mg/L. For each concentration, there were 3 repeats. The results were statistically analyzed at 24 h.

Tetranychus cinnabarinus = assay: Laboratory activity assay on Tetranychus cinnabarinus, leaf disc dipping method; assay type: in vivo; conditions: foliar
Procedure: (1) Laboratory activity assay of tenvermectin on Tetranychus cinnabarinus: the laboratory activity of tenvermectin was tested using Tetranychus cinnabarinus as the test pest, and using avermectin as the positive control. The activities were compared between tenvermectin and avermectin.
Test organism: Tetranychus cinnabarinus: it was inoculated to horsebean seedling and cultured under the conditions of artificial climate [(26±1)° C., RH (70±5)%, H/D14].
Test reagents: 96% (w/w) avermectin, 98% (w/w) tenvermectin (TEVA:TEVB=8:2): 1 g 96% avermectin and 98% tenvermectin were weighed and added to a beaker respectively, into which 93 g methanol and 6 g surfactant nonylphenol polyoxyethylene ether were added to give a preparation at a concentration of 10000 mg/L. The preparation was diluted with water into a series of concentrations: 0.005, 0.01, 0.025, and 0.05 mg/L for test.
Experiment method: leaf disc dipping method was employed: adult mites that were raised in laboratory with consistent physiological state were selected. The horsebean leaves with consistent growth condition were selected. 2 cm leaf-discs were prepared using a puncher. The leaf-disc was placed on absorbent cotton in the center of a plastic dish with the back of blade upwards. […] The number of adult mites was counted under a stereomicroscope 2 h later, and the number should not be less than 20 on each leaf disc in the dish. […]

[2] = tested on: Bursaphelenchus xylophilus; assay: Activity of tenvermectin A/B of different ratios on Bursaphelenchus xylophilus; assay type: in vivo; conditions: for LC50: in vivo
Procedure: The activity of the mixture of tenvermectin A and tenvermectin B with different ratios was tested using Bursaphelenchus xylophilus as the test pest, in order to provide reference for modification and fermentation process of tenvermectin-producing bacteria.

[3] = 2.5 mg/L, 3 d after administration, field spray
[4] = 2.5 mg/L, 5 d after administration
[5] = 2.5 mg/L, 7 d after administration
[6] = 2.5 mg/L, 14 d after administration
[7] = 5.0 mg/L, 3 d after administration
[8] = 5.0 mg/L, 5 d after administration
[9] = 5.0 mg/L, 7 d after administration
[10] = 5.0 mg/L, 14 d after administration
[11] = 10.0 mg/L, 3 d after administration
[12] = 10.0 mg/L, 5 d after administration
[13] = 10.0 mg/L, 7 d after administration
[14] = 10.0 mg/L, 14 d after administration
[15] = Bursaphelenchus xylophilus, 24 h, read-out: Mortality at different concentrations
[16] = 2 mg/L, 24 h, dipping, reagents applied as emulsifiable concentrate/microemulsion

## CC[C@H](C)[C@H]1O[C@]2(C=C[C@@H]1C)C[C@@H]1C[C@@H](C/C=C(\C)[C@@H](O[C@H]3C[C@H](OC)[C@@H](O[C@H]4C[C@H](OC)[C@@H](O)[C@H](C)O4)[C@H](C)O3)[C@@H](C)/C=C/C=C3\CO[C@@H]4[C@H](O)C(C)=C[C@@H](C(=O)O1)[C@]34O)O2 [avermectin]
Citrus spider mite; [3]
  Amount of mites: 2.0
  Effect: 80.5c
Citrus spider mite; [4]
  Amount of mites: 1.5
  Effect: 86.7b
Citrus spider mite; [5]
  Amount of mites: 1.8
  Effect: 87.3c
Citrus spider mite; [6]
  Amount of mites: 1.9
  Effect: 80.1b
Citrus spider mite; [7]
  Amount of mites: 0.4
  Effect: 91.2ab
Citrus spider mite; [8]
  Amount of mites: 1.0
  Effect: 87.3b
Citrus spider mite; [9]
  Amount of mites: 1.3
  Effect: 88.1c
Citrus spider mite; [10]
  Amount of mites: 1.4
  Effect: 80.4b
Citrus spider mite; [11]
  Amount of mites: 1.4
  Effect: 81.6c
Citrus spider mite; [12]
  Amount of mites: 1.1
  Effect: 90.6b
Citrus spider mite; [13]
  Amount of mites: 0.7
  Effect: 95.5c
Citrus spider mite; [14]
  Amount of mites: 5.3
  Effect: 83.0b
[1]; Bursaphelenchus xylophilus, 24 h
  LC50: 5.35 µg/mL (≈ 6130 nM)
[1]; [15]
  mortality at 2 µg/mL: 43.2%
  mortality at 5 µg/mL: 46.1%
  mortality at 10 µg/mL: 63.1%
  mortality at 20 µg/mL: 66.9%
  mortality at 50 µg/mL: 78%
Tetranychus cinnabarinus; 24 h
  LC50: 0.0083 µg/mL (≈ 9.51 nM)
Tetranychus cinnabarinus; read-out: LC50 on Tetranychus cinnabarinus
  LC50: 0.0083 µg/mL (≈ 9.51 nM)

## ivermectin
[1]; [16]
  Mortality at different concentrations: 18.52%
[1]; 5 mg/L, 24 h, dipping
  Mortality at different concentrations: 42.55%
[1]; 10 mg/L, 24 h, dipping
  Mortality at different concentrations: 57.47%
[1]; 20 mg/L, 24 h, dipping
  Mortality at different concentrations: 58.33%
[1]; 50 mg/L, 24 h, dipping
  Mortality at different concentrations: 78.94%
[1]; 24 h, dipping
  LC50: 11.0629 µg/mL

## tenvermectin A
[2]
  LC50: 6.592 µg/mL

## milbemycin
[1]; in vivo
  LC50: 5.0123 µg/mL

## tenvermectin B
[2]
  LC50: 3.4816 µg/mL
[2]; in words
  relative activity of tenvermectin A/B ratios on Bursaphelenchus xylophilus: higher than that of tenvermectin A

## emamectin benzoate
[1]; [16]
  Mortality at different concentrations: 48.27%
[1]; 5 mg/L, 24 h, dipping
  Mortality at different concentrations: 61.68%
[1]; 10 mg/L, 24 h, dipping
  Mortality at different concentrations: 67.44%
[1]; 20 mg/L, 24 h, dipping
  Mortality at different concentrations: 75%
[1]; 50 mg/L, 24 h, dipping
  Mortality at different concentrations: 86.67%
[1]; 24 h, dipping
  LC50: 2.8055 µg/mL
